Organism: Rattus norvegicus
Test: DrugMatrix - Regimen: Daily Repeat
Type: toxicity, organism-based, Sprague-Dawley
Design: regimen Daily Repeat, gender Male, age 6-8 weeks
Details: in vivo, po, 47 mg/kg, route oral GAVAGE, dose level Low, […]; for ABSOLUTE BASOPHIL / ABSOLUTE EOSINOPHIL / ABSOLUTE LYMPHOCYTE / ABSOLUTE MONOCYTE / ABSOLUTE SEGMENTED NEUTROPHIL / BASOPHIL / EOSINOPHIL / ERYTHROCYTE COUNT / HEMATOCRIT / HEMOGLOBIN / LEUKOCYTE COUNT / LYMPHOCYTE / MEAN CORPUSCULAR HEMOGLOBIN / MEAN CORPUSCULAR HEMOGLOBIN CONCENTRATION / MEAN CORPUSCULAR VOLUME / MONOCYTE / NEUTROPHIL / NUCLEATED RED BLOOD CELLS / PLATELET COUNT: tissue Blood; for ALANINE AMINOTRANSFERASE / ALBUMIN / ALKALINE PHOSPHATASE / ASPARTATE AMINOTRANSFERASE / BLOOD UREA NITROGEN / CARBON DIOXIDE / CHLORIDE / CHOLESTEROL / CREATINE PHOSPHOKINASE / CREATININE / GLUCOSE / LACTATE DEHYDROGENASE / LIPASE / PHOSPHORUS / POTASSIUM / SODIUM / TOTAL BILIRUBIN / TOTAL PROTEIN / URIC ACID: tissue Plasma

With `Cc1cn([C@H]2C[C@H](N=[N+]=[N-])[C@@H](CO)O2)c(=O)[nH]c1=O` [ZIDOVUDINE] the “ABSOLUTE BASOPHIL” value (72 h, time 3 day) was 0 CELLS/uL, the “ABSOLUTE EOSINOPHIL” value (72 h, time 3 day) was 0 CELLS/uL and the “ABSOLUTE LYMPHOCYTE” value (72 h, time 3 day) was 11829.67 CELLS/uL. The “ABSOLUTE MONOCYTE” value (72 h, time 3 day) was 82 CELLS/uL, the “ABSOLUTE SEGMENTED NEUTROPHIL” value (72 h, time 3 day) was 955 CELLS/uL and the BASOPHIL (72 h, time 3 day) was 0%. For the same molecule, the EOSINOPHIL (72 h, time 3 day) was 0%, the “ERYTHROCYTE COUNT” value (72 h, time 3 day) was 5.26 x10E6/uL and the HEMATOCRIT (72 h, time 3 day) was 33.23%. The HEMOGLOBIN (72 h, time 3 day) was 13.43 G/DL, the “LEUKOCYTE COUNT” value (72 h, time 3 day) was 12.87 x10E3/uL and the LYMPHOCYTE (72 h, time 3 day) was 92%. The “MEAN CORPUSCULAR HEMOGLOBIN” value (72 h, time 3 day) was 25.67 pg, the “MEAN CORPUSCULAR HEMOGLOBIN CONCENTRATION” value (72 h, time 3 day) was 40.47 G/DL and the “MEAN CORPUSCULAR VOLUME” value (72 h, time 3 day) was 63.37 fL. For the same molecule, the MONOCYTE (72 h, time 3 day) was 0.67%, the NEUTROPHIL (72 h, time 3 day) was 7.33% and the “NUCLEATED RED BLOOD CELLS” value (72 h, time 3 day) was 0 /100WBC. The “PLATELET COUNT” value (72 h, time 3 day) was 1228 x10E3/uL, the “ALANINE AMINOTRANSFERASE” value (72 h, time 3 day) was 73.67 u/L and the ALBUMIN (72 h, time 3 day) was 4.1 G/DL. The “ALKALINE PHOSPHATASE” value (72 h, time 3 day) was 470 u/L, the “ASPARTATE AMINOTRANSFERASE” value (72 h, time 3 day) was 86 u/L and the “BLOOD UREA NITROGEN” value (72 h, time 3 day) was 12 mg/dL. The “CARBON DIOXIDE” value (72 h, time 3 day) was 32.67 mmol/L, the CHLORIDE (72 h, time 3 day) was 102.33 MEQ/L and the CHOLESTEROL (72 h, time 3 day) was 68 mg/dL. For the same molecule, the “CREATINE PHOSPHOKINASE” value (72 h, time 3 day) was 377 u/L, the CREATININE (72 h, time 3 day) was 0.14 mg/dL and the GLUCOSE (72 h, time 3 day) was 156.33 mg/dL. The “LACTATE DEHYDROGENASE” value (72 h, time 3 day) was 235.67 u/L, the LIPASE (72 h, time 3 day) was 11.67 u/L and the PHOSPHORUS (72 h, time 3 day) was 10.87 mg/dL. The POTASSIUM (72 h, time 3 day) was 6.46 MEQ/L, the SODIUM (72 h, time 3 day) was 141.6 MEQ/L and the “TOTAL BILIRUBIN” value (72 h, time 3 day) was 0.17 mg/dL. The “TOTAL PROTEIN” value (72 h, time 3 day) was 5.57 G/DL, the “URIC ACID” value (72 h, time 3 day) was 1.57 mg/dL and the “ABSOLUTE BASOPHIL” value (120 h, time 5 day) was 0 CELLS/uL. The “ABSOLUTE EOSINOPHIL” value (120 h, time 5 day) was 0 CELLS/uL, the “ABSOLUTE LYMPHOCYTE” value (120 h, time 5 day) was 15346 CELLS/uL and the “ABSOLUTE MONOCYTE” value (120 h, time 5 day) was 401.67 CELLS/uL. For the same molecule, the “ABSOLUTE SEGMENTED NEUTROPHIL” value (120 h, time 5 day) was 2019 CELLS/uL, the BASOPHIL (120 h, time 5 day) was 0% and the EOSINOPHIL (120 h, time 5 day) was 0%. For the same molecule, the “ERYTHROCYTE COUNT” value (120 h, time 5 day) was 5.55 x10E6/uL, the HEMATOCRIT (120 h, time 5 day) was 35.13% and the HEMOGLOBIN (120 h, time 5 day) was 14.03 G/DL. The “LEUKOCYTE COUNT” value (120 h, time 5 day) was 17.77 x10E3/uL, the LYMPHOCYTE (120 h, time 5 day) was 86% and the “MEAN CORPUSCULAR HEMOGLOBIN” value (120 h, time 5 day) was 25.3 pg. For the same molecule, the “MEAN CORPUSCULAR HEMOGLOBIN CONCENTRATION” value (120 h, time 5 day) was 39.97 G/DL, the “MEAN CORPUSCULAR VOLUME” value (120 h, time 5 day) was 63.37 fL and the MONOCYTE (120 h, time 5 day) was 2.33%. The NEUTROPHIL (120 h, time 5 day) was 11.67%, the “NUCLEATED RED BLOOD CELLS” value (120 h, time 5 day) was 0 /100WBC and the “PLATELET COUNT” value (120 h, time 5 day) was 1138.33 x10E3/uL. For the same molecule, the “ALANINE AMINOTRANSFERASE” value (120 h, time 5 day) was 62 u/L, the ALBUMIN (120 h, time 5 day) was 4.3 G/DL and the “ALKALINE PHOSPHATASE” value (120 h, time 5 day) was 450.33 u/L. The “ASPARTATE AMINOTRANSFERASE” value (120 h, time 5 day) was 81.67 u/L, the “BLOOD UREA NITROGEN” value (120 h, time 5 day) was 12.33 mg/dL and the “CARBON DIOXIDE” value (120 h, time 5 day) was 30.67 mmol/L. The CHLORIDE (120 h, time 5 day) was 101 MEQ/L, the CHOLESTEROL (120 h, time 5 day) was 72.67 mg/dL and the “CREATINE PHOSPHOKINASE” value (120 h, time 5 day) was 317 u/L. The CREATININE (120 h, time 5 day) was 0.25 mg/dL, the GLUCOSE (120 h, time 5 day) was 162.33 mg/dL and the “LACTATE DEHYDROGENASE” value (120 h, time 5 day) was 138 u/L. For the same molecule, the LIPASE (120 h, time 5 day) was 11 u/L, the PHOSPHORUS (120 h, time 5 day) was 11.9 mg/dL and the POTASSIUM (120 h, time 5 day) was 6.72 MEQ/L. For the same molecule, the SODIUM (120 h, time 5 day) was 143.47 MEQ/L, the “TOTAL BILIRUBIN” value (120 h, time 5 day) was 0.2 mg/dL and the “TOTAL PROTEIN” value (120 h, time 5 day) was 5.87 G/DL. The “URIC ACID” value (120 h, time 5 day) was 1.9 mg/dL.
